In one assay the target is T1, Pol theta (1-899) (Homo sapiens, UniProt O75417).
T1 construct: Pol theta (1-899) (5 nM) in assay buffer
T1 sequence (O75417 1-899): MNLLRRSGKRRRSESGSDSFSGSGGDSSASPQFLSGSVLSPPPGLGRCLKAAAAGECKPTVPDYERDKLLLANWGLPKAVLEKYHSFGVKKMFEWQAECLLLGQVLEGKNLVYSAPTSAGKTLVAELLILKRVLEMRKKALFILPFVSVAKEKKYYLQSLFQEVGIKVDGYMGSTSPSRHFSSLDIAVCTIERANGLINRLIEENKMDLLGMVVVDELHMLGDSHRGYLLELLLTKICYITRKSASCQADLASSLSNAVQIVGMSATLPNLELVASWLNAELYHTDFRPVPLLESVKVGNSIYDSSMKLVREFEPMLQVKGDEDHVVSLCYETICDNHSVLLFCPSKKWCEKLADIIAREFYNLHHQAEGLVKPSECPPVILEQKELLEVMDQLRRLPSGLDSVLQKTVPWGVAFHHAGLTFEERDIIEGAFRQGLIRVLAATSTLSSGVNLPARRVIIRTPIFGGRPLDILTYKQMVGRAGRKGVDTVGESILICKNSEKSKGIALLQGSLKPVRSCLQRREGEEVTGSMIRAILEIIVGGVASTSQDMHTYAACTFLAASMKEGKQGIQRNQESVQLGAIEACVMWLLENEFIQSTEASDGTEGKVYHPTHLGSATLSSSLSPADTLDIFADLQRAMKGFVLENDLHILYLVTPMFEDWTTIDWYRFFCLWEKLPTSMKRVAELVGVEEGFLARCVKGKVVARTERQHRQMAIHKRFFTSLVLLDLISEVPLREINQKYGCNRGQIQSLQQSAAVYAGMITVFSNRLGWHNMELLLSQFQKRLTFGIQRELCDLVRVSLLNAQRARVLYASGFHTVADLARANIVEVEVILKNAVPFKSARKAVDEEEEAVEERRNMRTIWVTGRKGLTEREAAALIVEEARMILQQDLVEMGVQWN
Description: Pol theta ATPase activity, NADH oxidation-coupled enzymatic assay (ATPase NADH coupling: Standard Screening: hPolQ). Particulars: Pol theta (1-899) 5 nM, NADH oxidation-coupled ATPase assay; compounds of Table 3. In kind it is biochemical. An outline of the steps: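 NADH-coupled ATPase readout: 5 nM Pol theta (1-899) preincubated 15 min with 10-point compound series in Tris pH 7.80, KCl, MgCl2, DTT, BSA, Tween, glycerol, then 100 μM ATP, 300 nM 50-mer poly-dT ssDNA, NADH, PEP, LDH and PK added (stock levels). A340 followed 60 min; slopes fit four-parameter for IC50.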
For `COc1nnc(NC(=O)c2cnc(C)cc2-c2ccc3c(c2)CCO3)s1` [Example 380, 4-(2,3-dihydro-1-benzofuran-5-yl)-N-(5-methoxy-1,3,4-thiadiazol-2-yl)-6-methylpyridine-3-carboxamide], the IC50 fell in the range of 1000 to 10000 nM.

For `COc1nnc(NC(=O)c2cnc(C)cc2-c2ccc(C(=O)N(C)C)cc2)s1` [Example 369, 4-[4-(dimethylcarbamoyl)phenyl]-N-(5-methoxy-1,3,4-thiadiazol-2-yl)-6-methylpyridine-3-carboxamide], the IC50 lay in the range of 1000 to 10000 nM.

As to `COc1nnc(NC(=O)c2cnc(C)cc2-c2ccc3c(c2)C(=O)NC3)s1` [Example 332, N-(5-methoxy-1,3,4-thiadiazol-2-yl)-6-methyl-4-(3-oxo-2,3-dihydro-1H-isoindol-5-yl)pyridine-3-carboxamide], the concentration for half-maximal inhibition (IC50) lay in the range of 1000 to 10000 nM.

In turn, `COc1nnc(NC(=O)c2cnc(C)cc2-c2cccc(N3CCCCC3)c2)s1` [Example 478, N-(5-methoxy-1,3,4-thiadiazol-2-yl)-6-methyl-4-[3-(piperidin-1-yl)phenyl]pyridine-3-carboxamide] came in with a half-maximal inhibitory concentration (IC50) of 1000 to 10000 nM.

On to `CNS(=O)(=O)c1ccc(-c2cc(C)ncc2C(=O)Nc2nnc(OC)s2)cc1` [Example 384, N-(5-methoxy-1,3,4-thiadiazol-2-yl)-6-methyl-4-[4-(methylsulfamoyl)phenyl]pyridine-3-carboxamide], for which the IC50 lay in the range of 1000 to 10000 nM.

In turn, `COc1cnc(C)c(F)c1-c1cc(C)ncc1C(=O)Nc1nnc(O[C@H]2CCC[C@H](O)C2)s1` (single isomer, unassigned) [Example 256] came in with an IC50 of no more than 200 nM.

In the case of `COc1nnc(NC(=O)c2cnc(C)cc2-c2cncc(C(N)=O)c2)s1` [Example 340, N3′-(5-methoxy-1,3,4-thiadiazol-2-yl)-6′-methyl-[3,4′-bipyridine]-3′,5-dicarboxamide], the 50% inhibitory concentration (IC50) was 1000 to 10000 nM.

Regarding `COc1nnc(NC(=O)c2cnc(C)cc2-c2cccc(OC(F)(F)F)c2)s1` [Example 408, N-(5-methoxy-1,3,4-thiadiazol-2-yl)-6-methyl-4-[3-(trifluoromethoxy)phenyl]pyridine-3-carboxamide], the IC50 was in the range of 500 to 1000 nM.

Take `COc1nnc(NC(=O)c2cnc(C)cc2-c2cnc(N3CCOCC3)nc2)s1` [Example 427, N-(5-methoxy-1,3,4-thiadiazol-2-yl)-6-methyl-4-[2-(morpholin-4-yl)pyrimidin-5-yl]pyridine-3-carboxamide]: the IC50 is 1000 to 10000 nM.

For `COc1nnc(NC(=O)c2cnc(C)cc2-c2cc(Cl)c([S+](C)[O-])cc2OC)s1` (single isomer, unassigned) [Example 298], the IC50 lay in the range of 500 to 1000 nM.

The compound `COc1nnc(NC(=O)c2cnc(C)cc2-c2cccc(C(F)(F)F)c2)s1` [Example 359, N-(5-methoxy-1,3,4-thiadiazol-2-yl)-6-methyl-4-[3-(trifluoromethyl)phenyl]pyridine-3-carboxamide] gave an IC50 of no more than 200 nM.

Consider `COc1cnc(C)c(F)c1-c1cc(C)ncc1C(=O)Nc1nnc(OC2([C@H]3CCOC3)CC2)s1` (single isomer, unassigned) [Example 287], for which the IC50 is no more than 200 nM.

In turn, `COc1nnc(NC(=O)c2ccccc2-c2cc(Cl)ncc2OC)s1` [Example 291, 2-(2-chloro-5-methoxypyridin-4-yl)-N-(5-methoxy-1,3,4-thiadiazol-2-yl)benzamide] yielded a half-inhibitory concentration (IC50) of no more than 200 nM.

Compound `COc1cnc(Cl)cc1-c1cc(C)ncc1C(=O)Nc1nnc(O[C@@H]2C[C@H](F)CN(C)C2)s1` [Example 267, 2′-chloro-N-(5-(((3R,5S)-5-fluoro-1-methylpiperidin-3-yl)oxy)-1,3,4-thiadiazol-2-yl)-5′-methoxy-6-methyl-[4,4′-bipyridine]-3-carboxamide] had an IC50 of no more than 200 nM.

Regarding `CNC(=O)c1ccc(-c2cc(C)ncc2C(=O)Nc2nnc(OC)s2)cn1` [Example 479, N3′-(5-methoxy-1,3,4-thiadiazol-2-yl)-N6,6′-dimethyl-[3,4′-bipyridine]-3′,6-dicarboxamide], the IC50 was 1000 to 10000 nM.

As to `CCc1ccc(-c2cc(C)ncc2C(=O)Nc2nnc(OC)s2)cc1` [Example 459, 4-(4-ethylphenyl)-N-(5-methoxy-1,3,4-thiadiazol-2-yl)-6-methylpyridine-3-carboxamide], the IC50 was in the range of 1000 to 10000 nM.

`COc1cnc(Cl)cc1-c1cc(C)ncc1C(=O)Nc1nnc(O[C@H]2CO[C@H]3[C@@H]2OC[C@H]3O[N+](=O)[O-])s1` [Example 238, (3R,3aS,6S,6aR)-6-((5-(2′-chloro-5′-methoxy-6-methyl-[4,4′-bipyridine]-3-carboxamido)-1,3,4-thiadiazol-2-yl)oxy)hexahydrofuro[3,2-b]furan-3-yl nitrate] returned a half-maximal inhibitory concentration (IC50) of no more than 200 nM.

As to `COc1nnc(NC(=O)c2cnc(C)cc2-c2ccc(C#N)nc2C)s1` [Example 434, 6-cyano-N-(5-methoxy-1,3,4-thiadiazol-2-yl)-2,6′-dimethyl-[3,4′-bipyridine]-3′-carboxamide], the IC50 was 1000 to 10000 nM.

As for `COc1cnc(Cl)cc1-c1cc(C)ncc1C(=O)Nc1nnc(O[C@H]2CCCN([C@@H]3CCOC3)C2)s1` [Example 309, 2′-chloro-5′-methoxy-6-methyl-N-(5-(((S)-1-((R)-tetrahydrofuran-3-yl)piperidin-3-yl)oxy)-1,3,4-thiadiazol-2-yl)-[4,4′-bipyridine]-3-carboxamide], the IC50 is no more than 200 nM.

`COc1cc(C)cc(-c2cc(C)ncc2C(=O)Nc2nnc(OC)s2)c1` [Example 422, N-(5-methoxy-1,3,4-thiadiazol-2-yl)-4-(3-methoxy-5-methylphenyl)-6-methylpyridine-3-carboxamide] registered a half-inhibitory concentration (IC50) of 500 to 1000 nM.

Still in this assay, the particulars now being: Table 4; Pol theta (1-899) 5 nM, ATP, dT50 ssDNA.
As for `COc1cnc(Cl)cc1-c1cc(C)ncc1C(=O)Nc1nnc(O[C@H]2CC[C@@H](O)C2)s1` (single isomer, unassigned) [Example 58], the IC50 is no more than 200 nM.

The compound `COc1nnc(NC(=O)c2cnc(C)cc2-c2cc(Cl)ncc2C)s1` [Example 39, 2′-chloro-N-(5-methoxy-1,3,4-thiadiazol-2-yl)-5′,6-dimethyl-(4,4′-bipyridine)-3-carboxamide] displayed a concentration for half-maximal inhibition (IC50) of no more than 200 nM.

The compound `COc1nnc(NC(=O)c2cnc(C)cc2-c2c(F)cccc2OC)s1` [Example 2, 4-(2-fluoro-6-methoxyphenyl)-N-(5-methoxy-1,3,4-thiadiazol-2-yl)-6-methylpyridine-3-carboxamide] had a half-maximal inhibitory concentration (IC50) of no more than 200 nM.

The compound `COc1cnc(Cl)cc1-c1cc(C)ncc1C(=O)Nc1nnc(OC2CCCC2)s1` [Example 17, 2′-chloro-N-(5-(cyclopentyloxy)-1,3,4-thiadiazol-2-yl)-5′-methoxy-6-methyl-(4,4′-bipyridine)-3-carboxamide] showed an IC50 of no more than 200 nM.

The same assay, now with this note: Table 5; Pol theta (1-899) 5 nM, ATP, dT50 ssDNA.
Consider `COc1nnc(NC(=O)c2c[nH]nc2-c2cc(Cl)ncc2OC)s1` [Example 109, 3-(2-chloro-5-methoxypyridin-4-yl)-N-(5-methoxy-1,3,4-thiadiazol-2-yl)-1H-pyrazole-4-carboxamide], for which the 50% inhibitory concentration (IC50) fell in the range of 1000 to 10000 nM.

In turn, `COc1cnc(Cl)cc1-c1cc(C)ncc1C(=O)Nc1nnc(O[C@H]2CCC23COC3)s1` (single isomer, unassigned) [Example 136] returned a concentration for half-maximal inhibition (IC50) of no more than 200 nM.

Turning to `COc1cnc(Cl)cc1-c1cc(C)ncc1C(=O)Nc1nnc(O[C@H]2COC(C)(C)C2)s1` (single isomer, unassigned) [Example 131], the IC50 was no more than 200 nM.

Consider `COc1cnc(Cl)cc1-c1cc(C)ncc1C(=O)Nc1nnc(O[C@@H]2CC[C@H]2O)s1` (single isomer, unassigned) [Example 118], for which the half-maximal inhibitory concentration (IC50) was no more than 200 nM.

`COc1cnc(Cl)c(F)c1-c1cc(C)ncc1C(=O)Nc1nnc(O[C@H]2CCO[C@@H]2C)s1` (single isomer, unassigned) [Example 165] registered an IC50 of no more than 200 nM.

`COc1cnc(C)c(F)c1-c1cc(C)ncc1C(=O)Nc1nnc(O[C@@H]2C[C@H]3CC[C@@H]2O3)s1` (single isomer, unassigned) [Example 218] returned an IC50 of no more than 200 nM.

On to `COc1cnc(Cl)cc1-c1cc(C)ncc1C(=O)Nc1nnc(O[C@H]2CC[C@@H]2O)s1` (single isomer, unassigned) [Example 119], for which the half-inhibitory concentration (IC50) is no more than 200 nM.

Regarding `COc1cnc(Br)c(F)c1-c1cc(C)ncc1C(=O)Nc1nnc(O[C@@H]2CCOC2)s1` [Example 201, 2′-bromo-3′-fluoro-5′-methoxy-6-methyl-N-(5-(((R)-tetrahydrofuran-3-yl)oxy)-1,3,4-thiadiazol-2-yl)-(4,4′-bipyridine)-3-carboxamide], the concentration for half-maximal inhibition (IC50) is no more than 200 nM.

For the compound `COc1nnc(NC(=O)c2cnc(C)cc2-c2ccncc2OC)s1` [Example 101, 3′-methoxy-N-(5-methoxy-1,3,4-thiadiazol-2-yl)-6-methyl-(4,4′-bipyridine)-3-carboxamide], the 50% inhibitory concentration (IC50) lay within 1000 to 10000 nM.

Consider `COc1cnc(Cl)cc1-c1cc(C)ncc1C(=O)Nc1nnc(O[C@H]2CC[C@H]([C@@H](C)O)CC2)s1` (single isomer, unassigned) [Example 199], for which the 50% inhibitory concentration (IC50) was no more than 200 nM.

Take `COc1cnc(Cl)c(F)c1-c1cc(C)ncc1C(=O)Nc1nnc(O[C@H]2CCC[C@@H](O)C2)s1` (single isomer, unassigned) [Example 154]: the half-maximal inhibitory concentration (IC50) was no more than 200 nM.

In turn, `COc1cnc(Cl)cc1-c1cc(C)ncc1C(=O)Nc1nnc(O[C@H]2CC[C@@H](CO)CC2)s1` [Example 169, 2′-chloro-N-(5-(((1s,4s)-4-(hydroxymethyl)cyclohexyl)oxy)-1,3,4-thiadiazol-2-yl)-5′-methoxy-6-methyl-(4,4′-bipyridine)-3-carboxamide] displayed an IC50 of no more than 200 nM.

Staying with this assay, now noted: Table 5; values given as bound; Pol theta (1-899) 5 nM, ATP, dT50 ssDNA.
The compound `COc1nnc(NC(=O)c2cnc(C)cc2-c2cccc3scnc23)s1` [Example 98, 4-(benzo(d)thiazol-4-yl)-N-(5-methoxy-1,3,4-thiadiazol-2-yl)-6-methylnicotinamide] registered a concentration for half-maximal inhibition (IC50) greater than 10000 nM.

For orientation: IC50 means the concentration that gives 50% inhibition.

Values taken from patent US20240287080A1 (IDEAYA Biosciences Inc., priority 2021, published 2024).
